Source: ChEMBL document CHEMBL1137184, “Anti-HIV activity of some synthetic lignanolides and intermediates” (Bioorg Med Chem Lett, 2004)
pIC50: −log10 of the molar value.

Columns and labels:
[1] = system: Human immunodeficiency virus 1; assay: Compound was evaluated for the inhibition of HIV-1 LTR by HeLa-Tet-ON assay at 25 uM concentration; assay type: functional
[2] = system: Human immunodeficiency virus 1; assay: Compound was evaluated for the inhibition of HIV-1 LTR by TNF-alpha-induced NF-kB assay at 25 uM concentration (TNF-alpha-treated cells); assay type: functional
[3] = system: Human immunodeficiency virus 1; assay: Compound was evaluated for anti-Tat activity in the HeLa-TAT-Luc cell assay against human immunodeficiency virus at 100 uM concentration (Untreated cells); assay type: functional
[4] = system: Human immunodeficiency virus 1; assay: Compound was evaluated for the inhibition of HIV-1 LTR by TNF-alpha-induced NF-kB assay at 100 uM concentration (TNF-alpha-treated cells); assay type: functional
[5] = Compound was evaluated for toxicity in necrosis using MT2 assay at 25 uM concentration at 24 hr; conditions: human
[6] = system: Human immunodeficiency virus 1; assay: Compound was evaluated for anti-Tat activity in the HeLa-TAT-Luc cell assay against human immunodeficiency virus at 50 uM concentration (Untreated cells); assay type: functional
[7] = Compound was evaluated for toxicity in necrosis using MT2 assay at 50 uM concentration at 24 hr; conditions: human
[8] = system: Human immunodeficiency virus 1; assay: Compound was evaluated for anti-Tat activity in the HeLa-TAT-Luc cell assay against human immunodeficiency virus at 25 uM concentration (Untreated cells); assay type: functional
[9] = system: Human immunodeficiency virus 1; assay: Compound was evaluated for the inhibition of HIV-1 LTR by TNF-alpha-induced NF-kB assay at 50 uM concentration (TNF-alpha-treated cells); assay type: functional
[10] = system: Human immunodeficiency virus 1; assay: Compound was evaluated for the inhibition of HIV-1 LTR by HeLa-Tet-ON assay at 50 uM concentration; assay type: functional
[11] = system: Human immunodeficiency virus 1; assay: Compound was evaluated for activity in Recombinant virus assay at concentration that reduces luciferase activity, thus recombinant virus replication; assay type: functional, organism-based
[12] = Compound was evaluated for IP toxicity at concentration that reduces cellular growth; conditions: human
[13] = system: Human immunodeficiency virus 1; assay: Compound was evaluated for anti-Tat activity in the HeLa-TAT-Luc cell assay against human immunodeficiency virus at 100 uM concentration (Untreated cells);toxic at this dose; assay type: functional, organism-based
[14] = system: Human immunodeficiency virus 1; assay: Compound was evaluated for anti-Tat activity in the HeLa-TAT-Luc cell assay against human immunodeficiency virus at 50 uM concentration (Untreated cells);toxic at this dose; assay type: functional, organism-based
[15] = system: Human immunodeficiency virus 1; assay: Compound was evaluated for the inhibition of HIV-1 LTR by TNF-alpha-induced NF-kB assay at 100 uM concentration (TNF-alpha-treated cells);toxic at this dose; assay type: functional, organism-based

SMILES | inhibition at 25 µM [1] [%] | inhibition at 25 µM [2] [%] | inhibition at 100 µM [3] [%] | inhibition at 100 µM [4] [%] | Cell death [5] | inhibition at 50 µM [6] [%] | Cell death [7] | inhibition at 25 µM [8] [%] | inhibition at 50 µM [9] [%] | inhibition at 50 µM [10] [%] | pIC50 [11] | CC50 [12] [µM] | inhibition [13] | inhibition [14] | inhibition [15]
COC(=O)[C@H]1[C@H](c2cc(OC)c(OC)c(OC)c2)c2c(ccc3ccccc23)C(=O)[C@]12CCN=N2 | > 15 | 32.9 | 46 | 92 | 30 | 42.2 | 43.1 | 38.8 | 87.1 | > 15 | – | – | – | – | –
COc1cc([C@H]2c3c(ccc4ccccc34)C3(SCCCS3)[C@H]3COC(=O)[C@H]23)cc(OC)c1OC | – | 17.6 | -19 | -11.7 | – | -9.4 | – | -9.1 | 10.8 | – | – | – | – | – | –
CCn1c2ccccc2c2cc(C3(C4COC(=O)[C@@H]4C(O)c4cc(OC)c(OC)c(OC)c4)SCCCS3)ccc21 (some centres not stated) | < 15 | 38.5 | 30.7 | 43.7 | 4.6% | 20.3 | 4% | 11.9 | 39.7 | < 15 | 4.57 | > 50 | – | – | –
O=C1CC(C2(c3cccc4ccccc34)SCCCS2)CO1 (configuration not stated) | < 15 | 3 | 25.6 | 81 | 2.9% | 9.7 | 3.5% | 6 | 24.2 | > 15 | – | – | – | – | –
COc1cc([C@@H]2c3cccc4cccc(c34)C3(SCCCS3)[C@@H]3COC(=O)[C@@H]23)cc(OC)c1OC | – | 21.8 | -40.9 | 23.6 | 10.3% | -39.7 | 10.5% | -35.9 | 38 | – | – | – | – | – | –
C=C1C(=O)c2ccc3ccccc3c2[C@@H](c2cc(OC)c(OC)c(OC)c2)[C@@H]1C(=O)OC | < 15 | 96.7 | – | – | 95% | – | 98% | 56.2 | 98.9 | > 15 | – | – | Toxic | Toxic | Toxic
COc1cc2c(c(OC)c1OC)[C@]13C(=O)OC[C@H]1[C@@H](C)c1cccc4cccc(c14)[C@@H]23 | < 15 | 73.6 | -53.1 | – | 7.8% | -52.9 | 11.3% | -53.1 | 56.1 | < 15 | 5.64 | > 50 | – | – | –
CCn1c2ccccc2c2cc(C3(C4COC(=O)C4)SCCCS3)ccc21 (configuration not stated) | < 15 | -7.1 | 40.1 | 17.6 | 4.9% | 41.5 | 4.2% | 43.4 | 30 | < 15 | 5.34 | > 50 | – | – | –
COc1cc(C2C(=O)OCC2C(=O)c2cccc3ccccc23)cc(OC)c1OC (configuration not stated) | > 15 | 1.5 | – | – | 6.2% | – | 7.6% | 11.6 | 24.9 | > 15 | – | – | Toxic | Toxic | Toxic
COc1cc([C@@H]2c3c(ccc4ccccc34)C(=O)[C@H]3COC(=O)[C@@H]23)cc(OC)c1OC | < 15 | 32.9 | 43 | 95.5 | 5.5% | 60 | 4.5% | -0.6 | 25.8 | > 15 | – | – | – | – | –
COc1cc(C(O)[C@@H]2C(=O)OCC2C(=O)c2cccc3ccccc23)cc(OC)c1OC (some centres not stated) | > 15 | 37.5 | 65 | – | 32.1% | 18 | 45.7% | 1.6 | 64.2 | > 15 | – | – | – | – | Toxic
COc1cc([C@@H]2c3cccc4cccc(c34)C3(SCCCS3)[C@H](CO)[C@@H]2CO)cc(OC)c1OC | – | 43.5 | 16.4 | 25.2 | 7.9% | 17.6 | 6.7% | 11.7 | 35.2 | – | – | – | – | – | –
COc1cc(C(O)[C@H]2C(=O)OCC2C2(c3ccc4ccccc4c3)SCCCS2)cc(OC)c1OC (some centres not stated) | > 15 | 77 | 30.9 | 65.9 | 11.4% | 38.8 | 14.6% | 36.6 | 57.2 | > 15 | – | – | – | – | –
